Data taken from patent US10745377B2, “Piperidine or piperazine linked imidazole and triazole derivatives and methods of use” (MERCK SHARP & DOHME CORP., priority 2013, dated 2020).

Assays:
Type in all cases: biochemical
CYP3A4 = target: T1, CYP3A4 (Homo sapiens, UniProt P08684); assay: Cocktail assay for CYPs in human liver microsomes: CYP3A4 (midazolam 1′-hydroxylation); settings: human liver microsomes 0.1 mg/mL, 2 μM midazolam, 10 min at 37° C., 6 concentrations up to 10 μM; read-out: IC50 (nM) CYP3A4
T1 construct: 0.1 mg/mL protein human liver microsomes (BD Gentest); tissue BD Gentest; host or cells: human liver microsomes

CYP1A2 = target: T2, CYP1A2 (Homo sapiens, UniProt P05177); assay: Cocktail assay for CYPs in human liver microsomes: CYP1A2 (phenacetin O-deethylation); settings: human liver microsomes 0.1 mg/mL, 10 μM phenacetin, 10 min at 37° C., 6 concentrations up to 10 μM; read-out: IC50 (nM) CYP1A2
T2 construct: 0.1 mg/mL protein human liver microsomes (BD Gentest); tissue BD Gentest; host or cells: human liver microsomes
T2 sequence (P05177 1-516): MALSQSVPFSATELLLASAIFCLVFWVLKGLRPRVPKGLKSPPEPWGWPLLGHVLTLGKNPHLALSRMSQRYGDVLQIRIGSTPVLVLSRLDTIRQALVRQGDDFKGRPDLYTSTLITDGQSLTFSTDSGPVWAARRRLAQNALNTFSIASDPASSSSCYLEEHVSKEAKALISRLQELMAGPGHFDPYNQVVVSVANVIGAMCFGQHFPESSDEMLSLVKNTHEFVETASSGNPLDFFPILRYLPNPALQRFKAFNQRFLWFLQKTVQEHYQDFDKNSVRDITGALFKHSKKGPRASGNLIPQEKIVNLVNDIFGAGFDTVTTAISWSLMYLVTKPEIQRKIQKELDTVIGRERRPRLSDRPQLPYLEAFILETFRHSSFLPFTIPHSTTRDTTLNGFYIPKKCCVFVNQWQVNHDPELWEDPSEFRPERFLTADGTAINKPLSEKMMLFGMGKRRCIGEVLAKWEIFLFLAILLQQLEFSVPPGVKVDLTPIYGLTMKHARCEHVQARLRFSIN

CYP2C9 = target: T3, CYP2C9 (Homo sapiens, UniProt P11712); assay: Cocktail assay for CYPs in human liver microsomes: CYP2C9 (diclofenac 4′-hydroxylation); settings: human liver microsomes 0.1 mg/mL, 5 μM diclofenac, 10 min at 37° C., 6 concentrations up to 10 μM; read-out: IC50 (nM) CYP2C9
T3 construct: 0.1 mg/mL protein human liver microsomes (BD Gentest); tissue BD Gentest; host or cells: human liver microsomes

CYP2C19 = target: T4, CYP2C19 (Homo sapiens, UniProt P33261); assay: Cocktail assay for CYPs in human liver microsomes: CYP2C19 (mephenytoin 4′-hydroxylation); settings: human liver microsomes 0.1 mg/mL, 30 μM mephenytoin, 10 min at 37° C., 6 concentrations up to 10 μM; read-out: IC50 (nM) CYP2C19
T4 construct: 0.1 mg/mL protein human liver microsomes (BD Gentest); tissue BD Gentest; host or cells: human liver microsomes

CYP2D6 = target: T5, CYP2D6 (Homo sapiens, UniProt P10635); assay: Cocktail assay for CYPs in human liver microsomes: CYP2D6 (dextromethorphan O-demethylation); settings: human liver microsomes 0.1 mg/mL, 5 μM dextromethorphan, 10 min at 37° C., 6 concentrations up to 10 μM; read-out: IC50 (nM) CYP2D6
T5 construct: 0.1 mg/mL protein human liver microsomes (BD Gentest); tissue BD Gentest; host or cells: human liver microsomes
T5 sequence (P10635 whole entry): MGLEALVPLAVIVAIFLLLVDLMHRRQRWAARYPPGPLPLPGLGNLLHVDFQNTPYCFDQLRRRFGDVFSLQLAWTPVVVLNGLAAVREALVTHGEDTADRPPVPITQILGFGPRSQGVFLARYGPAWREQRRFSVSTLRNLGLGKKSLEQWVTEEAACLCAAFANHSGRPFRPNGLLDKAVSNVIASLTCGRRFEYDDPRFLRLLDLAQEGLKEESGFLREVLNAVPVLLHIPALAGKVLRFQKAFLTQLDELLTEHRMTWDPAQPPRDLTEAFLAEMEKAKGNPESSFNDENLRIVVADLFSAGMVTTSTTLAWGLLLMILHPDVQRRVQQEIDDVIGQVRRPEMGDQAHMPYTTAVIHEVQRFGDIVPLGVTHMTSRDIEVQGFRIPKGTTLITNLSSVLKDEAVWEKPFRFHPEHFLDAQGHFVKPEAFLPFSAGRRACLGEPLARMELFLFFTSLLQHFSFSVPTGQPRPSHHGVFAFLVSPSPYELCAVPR

T3 sequence (P11712 whole entry): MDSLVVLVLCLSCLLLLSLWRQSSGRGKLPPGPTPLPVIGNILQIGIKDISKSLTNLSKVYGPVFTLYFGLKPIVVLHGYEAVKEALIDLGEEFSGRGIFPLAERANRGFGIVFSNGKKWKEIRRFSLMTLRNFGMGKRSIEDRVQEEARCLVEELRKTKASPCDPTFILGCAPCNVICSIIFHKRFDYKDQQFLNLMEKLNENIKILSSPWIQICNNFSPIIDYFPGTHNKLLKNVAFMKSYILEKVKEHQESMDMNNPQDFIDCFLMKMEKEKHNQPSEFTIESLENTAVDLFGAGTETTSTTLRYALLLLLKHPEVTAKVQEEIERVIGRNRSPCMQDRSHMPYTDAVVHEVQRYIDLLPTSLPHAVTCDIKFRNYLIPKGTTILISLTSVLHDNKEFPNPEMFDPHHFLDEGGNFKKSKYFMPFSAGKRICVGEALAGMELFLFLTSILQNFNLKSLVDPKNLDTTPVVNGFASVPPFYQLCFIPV
T1 sequence (P08684 whole entry): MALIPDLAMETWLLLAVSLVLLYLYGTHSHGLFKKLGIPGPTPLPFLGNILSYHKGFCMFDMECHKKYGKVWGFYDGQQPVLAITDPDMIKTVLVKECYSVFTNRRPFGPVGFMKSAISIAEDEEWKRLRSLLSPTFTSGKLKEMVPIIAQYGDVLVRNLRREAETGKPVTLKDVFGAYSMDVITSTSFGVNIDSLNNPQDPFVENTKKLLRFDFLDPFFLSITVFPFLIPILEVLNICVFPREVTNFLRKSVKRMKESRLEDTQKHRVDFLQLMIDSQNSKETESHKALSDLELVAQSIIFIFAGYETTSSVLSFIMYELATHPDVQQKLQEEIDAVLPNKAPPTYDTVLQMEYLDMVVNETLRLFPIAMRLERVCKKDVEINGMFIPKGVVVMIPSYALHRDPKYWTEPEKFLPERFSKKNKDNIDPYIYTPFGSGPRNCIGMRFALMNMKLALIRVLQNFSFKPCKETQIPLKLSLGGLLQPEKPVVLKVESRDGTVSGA
T4 sequence (P33261 whole entry): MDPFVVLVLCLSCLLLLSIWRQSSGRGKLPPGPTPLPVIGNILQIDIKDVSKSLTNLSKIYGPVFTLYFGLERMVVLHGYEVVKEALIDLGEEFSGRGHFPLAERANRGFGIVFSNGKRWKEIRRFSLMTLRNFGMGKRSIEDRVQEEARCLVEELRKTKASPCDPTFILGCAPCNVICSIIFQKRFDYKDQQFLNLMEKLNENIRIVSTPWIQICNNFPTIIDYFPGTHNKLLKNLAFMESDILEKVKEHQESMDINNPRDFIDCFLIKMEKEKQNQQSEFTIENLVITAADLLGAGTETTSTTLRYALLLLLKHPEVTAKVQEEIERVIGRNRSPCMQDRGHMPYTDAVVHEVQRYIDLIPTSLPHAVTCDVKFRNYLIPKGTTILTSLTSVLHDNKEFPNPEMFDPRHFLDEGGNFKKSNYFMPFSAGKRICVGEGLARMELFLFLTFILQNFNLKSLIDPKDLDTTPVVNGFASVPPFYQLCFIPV

Structure (SMILES)	IC50 (CYP3A4)	IC50 (CYP1A2)	IC50 (CYP2C9)	IC50 (CYP2C19)	IC50 (CYP2D6)
CCC1(C#N)CCN(Cc2cncn2[C@H](C)c2ccc(F)cc2)CC1 [Compound 1, (R)-4-Ethyl-1-((1-(1-(4-fluorophenyl)ethyl)-1H-imidazol-5-yl)methyl)piperidine-4-carbonitrile]	20 nM	> 10000 nM	7370 nM	6220 nM	> 10000 nM
CC(C)C1(C#N)CCN(Cc2cncn2[C@H](C)c2ccc(F)cc2)CC1 [Compound 2, (R)-1-((1-(1-(4-fluorophenyl)ethyl)-1H-imidazol-5-yl)methyl)-4-isopropylpiperidine-4-carbonitrile]	18 nM	> 10000 nM	> 10000 nM	> 10000 nM	> 10000 nM
C[C@H](c1ccc(F)cc1)n1cncc1CN1CCC(C)(C#N)CC1 [Compound 3, (R)-1-((1-(1-(4-fluorophenyl)ethyl)-1H-imidazol-5-yl)methyl)-4-methylpiperidine-4-carbonitrile]	37 nM	> 10000 nM	> 10000 nM	> 10000 nM	8710 nM
CC1(C#N)CCN(Cc2cncn2Cc2nc3ccccc3s2)CC1 [Compound 4, 1-((1-(benzo[d]thiazol-2-ylmethyl)-1H-imidazol-5-yl)methyl)-4-methylpiperidine-4-carbonitrile]	58 nM	> 10000 nM	3270 nM	2680 nM	> 10000 nM
C[C@H](c1ccc(F)cc1)n1cncc1CN1CCC(C#N)(C2CCCC2)CC1 [Compound 5, (R)-4-cyclopentyl-1-((1-(1-(4-fluorophenyl)ethyl)-1H-imidazol-5-yl)methyl)piperidine-4-carbonitrile]	15 nM	5570 nM	3250 nM	3740 nM	7330 nM
CCCC1(C#N)CCN(Cc2cncn2[C@H](C)c2ccc(F)cc2)CC1 [Compound 6, (R)-1-((1-(1-(4-fluorophenyl)ethyl)-1H-imidazol-5-yl)methyl)-4-propylpiperidine-4-carbonitrile]	27 nM	> 10000 nM	5670 nM	7920 nM	4960 nM

Second part, the compound after the results:

IC50 (CYP3A4)	IC50 (CYP1A2)	IC50 (CYP2C9)	IC50 (CYP2C19)	IC50 (CYP2D6)	Structure (SMILES)
12 nM	> 10000 nM	7770 nM	5500 nM	> 10000 nM	C[C@H](c1ccc(C#N)cc1)n1cncc1CN1CCN(c2ccccc2)C(C(=O)N2CCCCC2)C1 (single isomer, unassigned) [Compound 45a]
20 nM	> 10000 nM	4000 nM	5180 nM	> 10000 nM	C[C@H](c1ccc(C#N)cc1)n1cncc1CN1CCN(c2ccccc2)C(C(=O)N2CCCCC2)C1 (single isomer, unassigned) [Compound 45b]
16 nM	> 10000 nM	4360 nM	4330 nM	4000 nM	C[C@H](c1ccc(F)cc1)n1cncc1CN1CCN(C(=O)c2ccccc2)C(c2ccccc2)C1 (single isomer, unassigned) [Compound 50a]
5 nM	> 10000 nM	1280 nM	4400 nM	> 10000 nM	C[C@H](c1ccc(F)cc1)n1cncc1CN1CCN(C(=O)c2ccccc2)C(c2ccccc2)C1 (single isomer, unassigned) [Compound 50b]
7 nM	> 10000 nM	> 10000 nM	8490 nM	> 10000 nM	C[C@H](c1ccc(F)cc1)n1cncc1CN1CCN(C(=O)C2CCOCC2)C(c2ccccc2)C1 (single isomer, unassigned) [Compound 52a]
27 nM	> 10000 nM	6200 nM	3670 nM	> 10000 nM	C[C@H](c1ccc(F)cc1)n1cncc1CN1CCN(C(=O)C2CCOCC2)C(c2ccccc2)C1 (single isomer, unassigned) [Compound 52b]
